Test results taken from patent US12583825B2, “Benzo[h]quinazolin-4-amine and thieno[3,2-h]quinazolin-4-amine derivatives for the treatment of cancer” (Redona Therapeutics, Inc., priority 2020, dated 2026).

What was measured:
MDA-MB-231 cells = assay: MDA-MB-231 proliferation assay; assay type: cell-based; details: Homo sapiens, 72 hours, YO-PRO-1 readout
Description: MDA-MB-231 Proliferation Assay
MDA-MB-231 cells were cultivated in DMEM High Glucose (4.5 g/L) with L-Glutamine (BioConcept, cat. no. 1-26F03-I) supplemented with 1% Na-pyruvate (Sigma, cat. no. S8636), 1% Penicillin-Streptomycin (BioConcept, cat. no. 4-01F00H), and 10% FBS (Sigma, cat. no. F9665) using standard techniques. Cells were seeded in black, clear-bottom 384 well plates for tissue culture (Greiner Bio-One, cat. no. 781091) at a density of 750 cells per well in 20 μL medium and the plates were incubated overnight at 37° C. with 5% CO2 prior to treatment. Experimental compounds were serially diluted in DMSO to 200× the desired final concentrations. The solutions were then diluted 1:40 with culture medium and 5 μL aliquots were mixed into the wells containing the cells. The final concentration of DMSO was 0.5%. The plates were incubated for 72 hours and cell numbers were then measured using YO-PRO™-1 Iodide (ThermoFisher Scientific, cat. no. Y3603) essentially as recommended by the manufacturer. […] The plates were incubated at room temperature in the dark for 30 minutes. Fluorescence intensity signals were then measured on a Synergy 4 reader (BioTek) using 485/20 nm and 530/25 nm filters for the excitation and emission, respectively. Relative proliferation values were calculated by normalizing the raw data using DMSO-treated cells (100% proliferation) and the signals obtained from cells that were evaluated at the time of compound addition (0% proliferation). The concentration-response data were fitted to a sigmoidal 4-parameter logistic model with the maximum constrained to 100%.

recombinant human CLK3 = target: T1, recombinant human CLK3 (Homo sapiens, UniProt P49761); assay: CLK3 kinase assay (LANCE Ultra); assay type: biochemical; details: 0.5 nM CLK3, 300 μM ATP, 3 hours at 30° C.
T1 construct: purchased Thermo Fisher Scientific PV3826
T1 sequence (P49761 whole entry): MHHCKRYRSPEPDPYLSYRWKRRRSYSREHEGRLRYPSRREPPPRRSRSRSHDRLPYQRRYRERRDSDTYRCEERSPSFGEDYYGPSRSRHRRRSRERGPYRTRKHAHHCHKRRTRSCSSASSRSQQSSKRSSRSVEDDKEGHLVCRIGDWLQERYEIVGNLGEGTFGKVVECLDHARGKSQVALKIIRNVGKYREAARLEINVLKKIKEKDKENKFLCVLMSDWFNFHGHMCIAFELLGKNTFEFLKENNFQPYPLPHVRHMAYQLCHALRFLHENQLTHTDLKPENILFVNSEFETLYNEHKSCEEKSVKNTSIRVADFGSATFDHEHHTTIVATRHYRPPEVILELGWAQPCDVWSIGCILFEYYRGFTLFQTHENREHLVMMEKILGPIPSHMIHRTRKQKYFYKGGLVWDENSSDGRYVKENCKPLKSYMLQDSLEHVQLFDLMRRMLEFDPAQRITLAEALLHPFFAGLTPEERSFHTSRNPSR
Description: CLK3 kinase activity was measured using the LANCE® Ultra technology (PerkinElmer) essentially as recommended by the supplier. Briefly, 2.5 μL of test sample at 4× the desired final concentration in 4% DMSO were dispensed into white, low volume, round bottom, 384 well plates (Corning, cat. no. 4512). 5 μL of a mixture containing recombinant human CLK3 (Thermo Fisher Scientific, cat. no. PV3826) and the labeled peptide substrate ULight™-CREBtide (PerkinElmer, cat. no. TRF0107) prepared in 1.33× kinase buffer (Thermo Fisher Scientific, cat. no. PV3189) were then added. Finally, the reactions were started by adding 2.5 μL of a 4× solution of ATP in kinase buffer. The plates were sealed with adhesive foils and incubated for 3 hours at 30° C. in the dark. The final concentrations of CLK3, ULight™—CREBtide, and ATP were 0.5 nM, 50 nM, and 300 μM, respectively. 5 μL of 40 mM EDTA were then added to terminate the reactions. The Eu-anti-phospho-CREB antibody (PerkinElmer, cat. no. TRF0200) diluted in LANCE® detection buffer (PerkinElmer, cat. no. CR97) was then added to a final concentration of 2 nM and the reactions were incubated for 1 hour at room temperature in the dark. The signals were measured using a Synergy 4 reader (BioTek) with a 320/80 nm filter for the excitation and 620/10 nm and 665/8 nm filters for the donor and acceptor emission, respectively. […] IC50 values were calculated by fitting the concentration-response data to a sigmoidal 4-parameter logistic model.

Structure (SMILES) | GI50 (MDA-MB-231 cells) | IC50 (recombinant human CLK3)
CC1(C)/C(=N/OCC#N)c2cc(O[C@H]3CC[C@H](N)CC3)ccc2-c2ncnc(N)c21 [Example 22, [(Z)-[4-amino-8-(trans-4-aminocyclohexoxy)-5,5-dimethyl-benzo[h]quinazolin-6-ylidene]amino]oxyacetonitrile] | 691 nM | 34.5 nM
CCOC(=O)CCO/N=C1\c2cc(O[C@H]3CC[C@H](N)CC3)ccc2-c2ncnc(N)c2C1(C)C [Example 23, ethyl 3-[(Z)-[4-amino-8-(trans-4-aminocyclohexoxy)-5,5-dimethyl-benzo[h]quinazolin-6-ylidene]amino]oxypropanoate] | 647 nM | 26.5 nM
Cc1noc(C)c1CO/N=C1\c2cc(O[C@H]3CC[C@H](N)CC3)ccc2-c2ncnc(N)c2C1(C)C [Example 25, (6Z)-8-(trans-4-aminocyclohexoxy)-6-[(3,5-dimethylisoxazol-4-yl)methoxyimino]-5,5-dimethyl-benzo[h]quinazolin-4-amine] | 1600 nM | 151 nM
CC1(C)/C(=N/OCCCOCc2ccccc2)c2cc(O[C@H]3CC[C@H](N)CC3)ccc2-c2ncnc(N)c21 [Example 26, (6Z)-8-(trans-4-aminocyclohexoxy)-6-(3-benzyloxypropoxyimino)-5,5-dimethyl-benzo[h]quinazolin-4-amine] | 1360 nM | 42.6 nM
CC1(C)/C(=N/OCCN2CCCC2)c2cc(O[C@H]3CC[C@H](N)CC3)ccc2-c2ncnc(N)c21 [Example 28, (6Z)-8-(trans-4-aminocyclohexoxy)-5,5-dimethyl-6-(2-pyrrolidin-1-ylethoxyimino)benzo[h]quinazolin-4-amine] | > 2000 nM | 279 nM
CC(C)CO/N=C1\c2cc(O[C@H]3CC[C@H](N)CC3)ccc2-c2ncnc(N)c2C1(C)C [Example 30, (6Z)-8-(trans-4-aminocyclohexoxy)-6-isobutoxyimino-5,5-dimethyl-benzo[h]quinazolin-4-amine] | 1560 nM | 93.9 nM
COC(=O)CO/N=C1\c2cc(O[C@H]3CC[C@H](N)CC3)ccc2-c2ncnc(N)c2C1(C)C [Example 31, methyl 2-[(Z)-[4-amino-8-(trans-4-aminocyclohexoxy)-5,5-dimethyl-benzo[h]quinazolin-6-ylidene]amino]oxyacetate] | 1580 nM | 76.2 nM
CC1(C)/C(=N/OCC(N)=O)c2cc(O[C@H]3CC[C@H](N)CC3)ccc2-c2ncnc(N)c21 [Example 32, 2-[(Z)-[4-amino-8-(trans-4-aminocyclohexoxy)-5,5-dimethyl-benzo[h]quinazolin-6-ylidene]amino]oxyacetamide] | 1490 nM | 29.6 nM
CNC(=O)CO/N=C1\c2cc(O[C@H]3CC[C@H](N)CC3)ccc2-c2ncnc(N)c2C1(C)C [Example 33, 2-[(Z)-[4-amino-8-(trans-4-aminocyclohexoxy)-5,5-dimethyl-benzo[h]quinazolin-6-ylidene]amino]oxy-N-methyl-acetamide] | 1190 nM | 23.3 nM
CC1(C)/C(=N/OCC2CNC(=O)O2)c2cc(O[C@H]3CC[C@H](N)CC3)ccc2-c2ncnc(N)c21 (stereo partly drawn) [Example 34, 5-[[(Z)-[4-amino-8-(trans-4-aminocyclohexoxy)-5,5-dimethyl-benzo[h]quinazolin-6-ylidene]amino]oxymethyl]oxazolidin-2-one] | 620 nM | 10.9 nM
CN(C)CCO/N=C1\c2cc(O[C@H]3CC[C@H](N)CC3)ccc2-c2ncnc(N)c2C1(C)C [Example 35, (6Z)-8-(trans-4-aminocyclohexoxy)-6-[2-(dimethylamino)ethoxyimino]-5,5-dimethyl-benzo[h]quinazolin-4-amine] | 1480 nM | 144 nM
CO/N=C1\c2cc(O[C@H]3CC[C@H](N)CC3)sc2-c2ncnc(N)c2C1(C)C [Example 36, (6Z)-8-(trans-4-aminocyclohexoxy)-6-methoxyimino-5,5-dimethyl-thieno[3,2-h]quinazolin-4-amine] | 1150 nM | 56.4 nM
CC1(C)/C(=N/OC[C@H]2CNC(=O)O2)c2cc(O[C@H]3CC[C@H](N)CC3)ccc2-c2ncnc(N)c21 [Example 37, (5R)-5-[[(Z)-[4-amino-8-(trans-4-aminocyclohexoxy)-5,5-dimethyl-benzo[h]quinazolin-6-ylidene]amino]oxymethyl]oxazolidin-2-one] | > 2000 nM | 59 nM
CO/N=C1\c2cc(OC)c(Cl)cc2-c2ncnc(N)c2C1(C)C [Example 41, (6Z)-9-chloro-8-methoxy-6-methoxyimino-5,5-dimethyl-benzo[h]quinazolin-4-amine] | > 2000 nM | 92.8 nM
CO/N=C1\c2c(ccc(OC)c2Cl)-c2ncnc(N)c2C1(C)C [Example 43, (6Z)-7-chloro-8-methoxy-6-methoxyimino-5,5-dimethyl-benzo[h]quinazolin-4-amine] | > 2000 nM | 90.5 nM
CO/N=C1\c2cc(N(C)[C@H]3CC[C@H](N)CC3)ccc2-c2ncnc(N)c2C1(C)C [Example 44, (6Z)—N8-(trans-4-aminocyclohexyl)-6-methoxyimino-N8,5,5-trimethyl-benzo[h]quinazoline-4,8-diamine] | > 2000 nM | 15.8 nM
CO/N=C1/c2cc(O[C@H]3CC[C@H](N)CC3)ccc2-c2ncnc(N)c2C1(C)C [Example 45, (6E)-8-(trans-4-aminocyclohexoxy)-6-methoxyimino-5,5-dimethyl-benzo[h]quinazolin-4-amine] | 1460 nM | 104 nM
CC1(C)/C(=N\O)c2cc(O[C@H]3CC[C@H](N)CC3)ccc2-c2ncnc(N)c21 [Example 46, (6E)-4-amino-8-(trans-4-aminocyclohexoxy)-5,5-dimethyl-benzo[h]quinazolin-6-one oxime] | 470 nM | 12.7 nM
C=C(c1ccc2c(c1)/C(=N/OC)C(C)(C)c1c(N)ncnc1-2)[C@H]1CC[C@H](N)CC1 [Example 47, (6E)-8-[1-(trans-4-aminocyclohexyl)vinyl]-6-methoxyimino-5,5-dimethyl-benzo[h]quinazolin-4-amine] | 443 nM | 77.3 nM
CO/N=C1/c2c(ccc(OC)c2Cl)-c2ncnc(N)c2C1(C)C [Example 48, (6E)-7-chloro-8-methoxy-6-methoxyimino-5,5-dimethyl-benzo[h]quinazolin-4-amine] | > 2000 nM | 4.9 nM
CO/N=C1/c2c(ccc(OC)c2N)-c2ncnc(N)c2C1(C)C [Example 49, (6E)-8-methoxy-6-methoxyimino-5,5-dimethyl-benzo[h]quinazoline-4,7-diamine] | > 2000 nM | 14.4 nM
COc1ccc2c(c1)/C(=N\OC[C@@H]1CN(C)C(=O)O1)C(C)(C)c1c(N)ncnc1-2 [Example 50, (5S)-5-[[(Z)-(4-amino-8-methoxy-5,5-dimethyl-benzo[h]quinazolin-6-ylidene)amino]oxymethyl]-3-methyl-oxazolidin-2-one] | 761 nM | < 1.5 nM
CC1(C)/C(=N/OC[C@@H]2CNC(=O)O2)c2cc(Br)ccc2-c2ncnc(N)c21 [Example 51, (5S)-5-[[(Z)-(4-amino-8-bromo-5,5-dimethyl-benzo[h]quinazolin-6-ylidene)amino]oxymethyl]oxazolidin-2-one] | 511 nM | 7.26 nM
CN1C[C@@H](CO/N=C2\c3cc(Cl)ccc3-c3ncnc(N)c3C2(C)C)OC1=O [Example 52, (5S)-5-[[(Z)-(4-amino-8-chloro-5,5-dimethyl-benzo[h]quinazolin-6-ylidene)amino]oxymethyl]-3-methyl-oxazolidin-2-one] | 445 nM | < 1.5 nM
CN1C[C@@H](CO/N=C2\c3cc(Br)ccc3-c3ncnc(N)c3C2(C)C)OC1=O [Example 53, (5S)-5-[[(Z)-(4-amino-8-bromo-5,5-dimethyl-benzo[h]quinazolin-6-ylidene)amino]oxymethyl]-3-methyl-oxazolidin-2-one] | 194 nM | < 1.5 nM
